These results are taken from ChEMBL document CHEMBL5357031, “Design and Synthesis of Cytotoxic Water-Soluble Rocaglaol Derivatives against HEL Cells by Inhibiting Fli-1” (J Nat Prod, 2024).

In one assay the test system is SW480. Kind of assay: Cytotoxicity against human SW480 cells assessed as cell growth inhibition incubated for 72 hrs by MTT assay. The assay is classed as functional, cell-based. Conditions: Homo sapiens, SW480, 72 h. In general terms: Tetrazolium assays rely on reduction of a dye to a coloured formazan, in cell work by metabolically active cells.
The test system of the next assay is MDA-MB-231. In words: cells. To be noted: Homo sapiens, MDA-MB-231, 72 h.
The next assay concerns HEL. In words: Cytotoxicity against HEL cells assessed as cell growth inhibition incubated for 72 hrs by MTT assay. The assay is classed as functional, cell-based, Homo sapiens.

Structures can show the parent of a compound that is named as a salt.

Description for MDA-MB-231: Cytotoxicity against human MDA-MB-231 cells assessed as cell growth inhibition incubated for 72 hrs by MTT assay

For `COc1cc(OC)c2c(c1)O[C@@]1(c3ccc(OCCCCn4ccnc4)cc3)[C@H](c3ccccc3)C[C@@H](O)[C@@]21O` (racemic), the IC50 (usually the concentration needed to halve the response being measured) with SW480 was > 1000 nM; in the assay on MDA-MB-231, 650 nM; in the assay with HEL (Homo sapiens, HEL, 72 h), 560 nM.

Regarding `COc1cc(OC)c2c(c1)O[C@@]1(c3ccc(OCCn4ccnc4)cc3)[C@H](c3ccccc3)C[C@@H](O)[C@@]21O` (racemic), the IC50 in the assay on SW480 was > 1000 nM; in the assay on MDA-MB-231, > 1000 nM; with HEL (Homo sapiens, HEL, 72 h) it was > 1000 nM.

Turning to `COc1cc(OC)c2c(c1)O[C@@]1(c3ccc(OCCCCCCCCn4cccc4)cc3)[C@H](c3ccccc3)C[C@@H](O)[C@@]21O` (racemic), the IC50 with SW480 was > 1000 nM; in the assay on MDA-MB-231 it was > 1000 nM; in the assay with HEL (Homo sapiens, HEL, 72 h), > 1000 nM.

In the case of `COc1cc(OC)c2c(c1)O[C@@]1(c3ccc(OC)c(CN4CCOCC4)c3)[C@H](c3ccccc3)C[C@@H](O)[C@@]21O` (racemic), the IC50 in the assay with SW480 is > 1000 nM; with MDA-MB-231, > 1000 nM; in the assay on HEL (Homo sapiens, HEL, 72 h), 140 nM.

Take `COc1cc(OC)c2c(c1)O[C@@]1(c3ccc(OCCN4CCCC4)cc3)[C@H](c3ccccc3)C[C@@H](O)[C@@]21O` (racemic): the IC50 in the assay on SW480 was > 1000 nM; in the assay on MDA-MB-231, > 1000 nM; with HEL (Homo sapiens, HEL, 72 h), > 1000 nM.

For the compound `COc1cc(OC)c2c(c1)O[C@@]1(c3ccc(OCCN4CCCCC4)cc3)[C@H](c3ccccc3)C[C@@H](O)[C@@]21O` (racemic), the IC50 in the assay on SW480 was > 1000 nM; in the assay with MDA-MB-231 it was > 1000 nM; in the assay with HEL (Homo sapiens, HEL, 72 h), > 1000 nM.

Turning to `COc1cc(OC)c2c(c1)O[C@@]1(c3ccc(OC)c(CN(C)C)c3)[C@H](c3ccccc3)C[C@@H](O)[C@@]21O` (racemic), the IC50 is > 1000 nM with SW480; > 1000 nM in the assay with MDA-MB-231; 190 nM in the assay with HEL (Homo sapiens, HEL, 72 h).

For the compound `COc1cc(OC)c2c(c1)O[C@@]1(c3ccc(OCCN4CCOCC4)cc3)[C@H](c3ccccc3)C[C@@H](O)[C@@]21O` (racemic), the IC50 was > 1000 nM in the assay with SW480; > 1000 nM with MDA-MB-231; > 1000 nM in the assay with HEL (Homo sapiens, HEL, 72 h).

Turning to `COc1cc(OC)c2c(c1)O[C@@]1(c3ccc(O)c(CN4CCCCC4)c3)[C@H](c3ccccc3)C[C@@H](O)[C@@]21O` (racemic), the IC50 with SW480 was > 1000 nM; in the assay with MDA-MB-231, > 1000 nM; in the assay with HEL (Homo sapiens, HEL, 72 h), > 1000 nM.

Regarding `CCCCN(CCCC)Cc1cc([C@@]23Oc4cc(OC)cc(OC)c4[C@]2(O)[C@H](O)C[C@H]3c2ccccc2)ccc1OC` (racemic), the IC50 is > 1000 nM in the assay with SW480; > 1000 nM in the assay with MDA-MB-231; > 1000 nM with HEL (Homo sapiens, HEL, 72 h).

With `COc1cc(OC)c2c(c1)O[C@@]1(c3ccc(OCCN4CCN(C)CC4)cc3)[C@H](c3ccccc3)C[C@@H](O)[C@@]21O` (racemic), the IC50 was > 1000 nM in the assay on SW480; > 1000 nM in the assay on MDA-MB-231; > 1000 nM in the assay with HEL (Homo sapiens, HEL, 72 h).

Take `CCN(CC)CCCCCOc1ccc([C@@]23Oc4cc(OC)cc(OC)c4[C@]2(O)[C@H](O)C[C@H]3c2ccccc2)cc1` (racemic): the half-inhibitory concentration (IC50) in the assay on SW480 is 690 nM; in the assay on MDA-MB-231, 130 nM; in the assay on HEL (Homo sapiens, HEL, 72 h), 260 nM.

For the compound `COc1cc(OC)c2c(c1)O[C@@]1(c3ccc(OCCCCCN4CCN(C)CC4)cc3)[C@H](c3ccccc3)C[C@@H](O)[C@@]21O` (stereo in doubt; (+)-18o), in the assay with HEL (hel), the IC50 is > 1000 nM.

As to `COc1cccc2c1C(=O)c1c(O)c3c(c(O)c1C2=O)C[C@@](O)(C(=O)CO)C[C@@H]3O[C@H]1C[C@H](N)[C@H](O)[C@H](C)O1` [DOXORUBICIN HYDROCHLORIDE], the IC50 with SW480 amounted to 120 nM; in the assay on MDA-MB-231, 500 nM; with HEL (Homo sapiens, HEL, 72 h), 240 nM.

On to `COc1cc(OC)c2c(c1)O[C@@]1(c3ccc(OCCCCN4CCCCC4)cc3)[C@H](c3ccccc3)C[C@@H](O)[C@@]21O` (racemic), for which the IC50 with SW480 was > 1000 nM; in the assay with MDA-MB-231, 660 nM; in the assay on HEL (Homo sapiens, HEL, 72 h), 460 nM.

In the case of `COc1cc(OC)c2c(c1)O[C@@]1(c3ccc(OCCCCCN(C)C)cc3)[C@H](c3ccccc3)C[C@@H](O)[C@@]21O` (racemic), the IC50 is > 1000 nM with SW480; 370 nM in the assay with MDA-MB-231; 170 nM in the assay on HEL (Homo sapiens, HEL, 72 h).

As to `CCN(CC)CCCCCCCCOc1ccc([C@@]23Oc4cc(OC)cc(OC)c4[C@]2(O)[C@H](O)C[C@H]3c2ccccc2)cc1` (racemic), the IC50 with SW480 is 650 nM; in the assay on MDA-MB-231, 470 nM; with HEL (Homo sapiens, HEL, 72 h), 390 nM.

For the compound `COc1cc(OC)c2c(c1)O[C@@]1(c3ccc(OCCCCCn4ccnc4)cc3)[C@H](c3ccccc3)C[C@@H](O)[C@@]21O` (racemic), the IC50 in the assay with SW480 was 880 nM; with MDA-MB-231, 320 nM; with HEL (Homo sapiens, HEL, 72 h), 310 nM.

As for `COc1cc(OC)c2c(c1)O[C@@]1(c3ccc(OCCN(C)C)cc3)[C@H](c3ccccc3)C[C@@H](O)[C@@]21O` (racemic), the IC50 in the assay with SW480 is > 1000 nM; in the assay on MDA-MB-231, > 1000 nM; with HEL (Homo sapiens, HEL, 72 h), > 1000 nM.

Regarding `CCN(CC)CCOc1ccc([C@@]23Oc4cc(OC)cc(OC)c4[C@]2(O)[C@H](O)C[C@H]3c2ccccc2)cc1` (racemic), the concentration for half-maximal inhibition (IC50) with SW480 was > 1000 nM; with MDA-MB-231, > 1000 nM; with HEL (Homo sapiens, HEL, 72 h), > 1000 nM.
